Source: patent publication US9848602B2, “Use of prothioconazole to induce host defence responses” (priority 2013, dated 2017)

Assays:
[1] = tested on: Arabidopsis thaliana plants (gene expression); assay: Induction of salicylic acid and pathogen response pathways, Affymetrix ATH1 gene expression analysis; format: in vivo; conditions: 500 g/ha spray; for total number of differentially expressed genes: p≦0.05, vs control
Method: Arabidopsis thaliana plants were grown on soil in climate controlled growth chambers for 33 days under defined conditions. For treatment Prothioconazole was formulated to result in a final concentration corresponding to 500 g/ha in a spray application. The plants were sprayed in biological replicates. A control group of similar grown plants was equally treated with a blank formulation. Aerial tissues of the treated plants were harvested 3 h and 6 h after treatment, frozen in liquid nitrogen and stored at −80° C. for further processing. Each biological replicate (3 per treatment and time point) consisted of a pool of 10 plants.
Total RNA was prepared from each sample using the RNeasy Midi kit from Qiagen #75142 according to the manufacturer's recommendations. The RNA was then transcribed into cDNA using Superscript II Reverse Transcriptase (Invitrogen). The biotin-labeled cRNA probes for hybridization were generated from the cDNA using the BioArray HighYield® RNA transcript labeling kit (T7) (Enzo Life Sceinces # ENZ42655-40) according the manufacturer's recommendations. The labelled cRNA probes were subsequently hybridized onto Affymetrix GeneChip Arabidopsis ATH1 Genome Arrays (cat.#900385).
The samples were analyzed using the Affymetrix GeneChip System. The resulting data were processed and analyzed using Genedata Refiner Array, Genedata Analyst, RobiNA (Lohse et al. 2012, Nucleic Acids Res) and MapMan (Usadel et al. 2009, Plant Cell Environment) software packages.

[2] = tested on: PR1 (pathogenesis-related protein 1) gene (AT2G14610) promoter; assay: Induction of defense gene expression, GFP reporter behind the PR1 promoter; format: in vivo, Arabidopsis thaliana; conditions: 300 ppm, 3 days after spraying, mock (background) set as 1.00
Method: Arabidopsis thaliana reporter plants containing the coding sequence of a green fluorescent protein (GFP) linked to the salicylate responsive promoter sequence of the PR1 (pathogenesis-related protein 1) gene (AT2G14610) were grown for five days and then sprayed with compounds. On the 3rd day after spraying, plant fluorescence was assessed with a MacroFluo instrument from Leica Microsystems (Wetzlar, Germany). Fluorescences were quantified with the MetaMorph Microscopy Automation & Image Analysis Software (Molecular Devices, Sunnyvale, Calif., United States).

[3] = 3 h after treatment, >2-fold change, p≦0.05
[4] = 6 h after treatment, >2-fold change, p≦0.05

Row | Compound | number of down-regulated genes [1, 3] | number of up-regulated genes [1, 3] | total number of differentially expressed genes ([1]; 3 h after treatment, >2-fold change) | induction of At1g57630 [Toll-Interleukin-Resistance domain-containing protein] ([1]; 6 h after treatment) [fold] | induction of At1g66090 [TIR-NBS class of disease resistance protein] ([1]; 6 h after treatment) [fold] | induction of At3g59930 [Defensin-like protein 206] ([1]; 6 h after treatment) [fold] | induction of At4g36010 [pathogenesis-related thaumatin family protein] ([1]; 6 h after treatment) [fold] | number of downregulated genes [1, 4] | number of up-regulated genes [1, 4] | total number of differentially expressed genes ([1]; 6 h after treatment, >2-fold change) | induction of At1g05680 (UDP-glucose: salicylic acid glucosyltransferase) ([1]; after 3 h) [fold] | induction of At2g43820 (UDP-glucose: salicylic acid glucosyltransferase) ([1]; after 3 h) [fold] | induction of At1g05680 (UDP-glucose: salicylic acid glucosyltransferase) ([1]; after 6 h) [fold] | induction of At2g43820 (UDP-glucose: salicylic acid glucosyltransferase) ([1]; after 6 h) [fold] | Relative fluorescence of GFP [2]
1 | OC(Cc1ccccc1Cl)(Cn1[nH]cnc1=S)C1(Cl)CC1 (centres unmarked) [Prothioconazole, 2-[2-(1-chlorocyclopropyl)-3-(2-chlorophenyl)-2-hydroxypropyl]-1,2-dihydro-3H-1,2,4-triazole-3-thione] | 142 | 238 | 380 | 3.4 | 2.4 | 3 | 3.8 | 148 | 299 | 447 | 3 | 2.5 | 5.5 | 2.5 | 2.04
2 | O=C(O)c1ccccc1O [Salicylic acid, salicylic acid] | – | – | – | – | – | – | – | – | – | – | – | – | – | – | 1.96
3 | CC(C)(C)C(O)(CCc1ccc(Cl)cc1)Cn1cncn1 (centres unmarked) [Tebuconazole] | – | – | – | – | – | – | – | – | – | – | – | – | – | – | 0.73
